# From publication PMC12040169 (PLOS Biology, 2025)
# Experiment: in vitro
# Settings: human, hela cells, % viability
row,SMILES,"viability at 28.5 h, 10 µM"
1,CN(C)CCN(Cc1ccncc1)Cc1cc(F)cc(F)c1 [CBK283096],94.9%
2,Fc1ccccc1CN(CCCn1ccnc1)Cc1cccnc1 [CBK283099],90.4%
3,Cc1ccc(CN(CCCn2ccnc2)Cc2ccncc2)o1 [CBK283101],108%
4,Cc1ccc(CN(CCCn2ccnc2)Cc2ccccn2)o1 [CBK283102],106%
5,Cc1ccc(CN(CCCn2ccnc2)Cc2nc3ccccc3[nH]2)o1 [CBK283103],90.9%
6,CCS(=O)(=O)N1CC2CCCC(O)(c3cccc(F)c3)C2C1 (stereo not shown) [CBK283108],99.3%
7,Cc1ccc(CN(CCCn2ccnc2)Cc2cnn(C)c2)s1 [CBK283113],97.3%
8,CCNCc1cc2c(C)nn(-c3ccc(F)cc3)c2[nH]c1=O [CBK283118],107%
9,Cc1nn(-c2ccc(F)cc2)c2[nH]c(=O)c(CNC(C)C)cc12 [CBK283119],95.7%
10,Cc1nn(-c2ccc(F)cc2)c2[nH]c(=O)c(CNC(C)(C)C)cc12 [CBK283120],102%
11,Cc1nn(-c2ccc(F)cc2)c2[nH]c(=O)c(CNC3CC3)cc12 [CBK283121],98.1%
12,CCC(=O)N1c2ccc(C(O)CN3CCSCC3)cc2CC1C (stereo not shown) [CBK283122],91.5%
13,COc1ccccc1CN(CCCn1ccnc1)Cc1ccoc1 [CBK283123],97.2%
14,Cc1ccc(CN[C@@H]2CCC(=O)N[C@H]2c2cc(F)cc(F)c2)o1 [CBK283128],97.9%
15,O=C1CC[C@@H](NCc2cccs2)[C@H](c2cc(F)cc(F)c2)N1 [CBK283129],95.5%
16,O=C1CC[C@@H](NCc2cccnc2)[C@H](c2cc(F)cc(F)c2)N1 [CBK283130],90.9%
17,O=C1CC[C@@H](NCc2ccncc2)[C@H](c2cc(F)cc(F)c2)N1 [CBK283131],92.9%
18,Cc1nn(C(C)CC(=O)NC2CCCOC2)c(C)c1C (stereo not shown) [CBK283133],112%
19,Cc1ccc(CN(CCCn2ccnc2)Cc2ccccc2O)s1 [CBK283135],103%
20,Cc1ccc(CN(CCCn2ccnc2)Cc2nccn2C)s1 [CBK283137],91.8%
21,Cc1ccc(CN(CCCn2ccnc2)Cc2[nH]cnc2C)s1 [CBK283138],90.3%
22,O=C(Nc1cccc(N2CCCC2)c1)c1cc(C2CC2)on1 [CBK283139],87.7%

row,SMILES,"viability at 28.5 h, 10 µM"
1,Cc1n[nH]c(C)c1CNC(=O)c1cc2ccc(F)cc2[nH]1 [CBK283147],89.4%
2,OC1(c2cccnc2F)CCN(Cc2c(F)cccc2Cl)CC1 [CBK283148],106%
3,OC1(c2cccnc2F)CCN(Cc2c(F)cccc2F)CC1 [CBK283149],107%
4,CCNC(=O)c1ccc(-n2cccn2)c(C#Cc2cccnc2)c1 [CBK283150],105%
5,Cc1cc2ccccc2n1CCC(=O)NC1CCCOC1 (stereo not shown) [CBK283152],91.1%
6,CC1CCc2n[nH]c(C(=O)NCCCc3ccco3)c2C1 (stereo not shown) [CBK283153],88.6%
7,O=C(NCCCC1CCOC1)c1[nH]nc2c1CCCCC2 (stereo not shown) [CBK283154],88.7%
8,O=C(NCCCc1ccccn1)C1(c2ccccc2F)CC1 [CBK283155],93.6%
9,Cc1n[nH]c(C)c1CNC(=O)C1(c2ccccc2F)CC1 [CBK283156],96.4%
10,O=C(NCCN1CCc2ccccc21)C1CC2C=CC1O2 (stereo not shown) [CBK283158],96.2%
11,Cc1cc(C)n(CC(O)CN(Cc2ccco2)CC2CC=CCC2)n1 (stereo not shown) [CBK283159],95.6%
12,CCCc1cc(C(=O)N(C)CCOc2ccccc2)[nH]n1 [CBK283162],91.7%
13,O=C(NCCN1CCC(O)(c2ccc(F)cc2)CC1)c1cccs1 [CBK283163],91.5%
14,O=C(NCCN1CCC(O)(c2ccc(F)cc2)CC1)C1CC1 [CBK283164],97.1%
15,O=C(NCCN1CCC(O)(c2ccc(F)cc2)CC1)c1ccco1 [CBK283166],99.3%
16,CC1CC1C(=O)NCCN1CCC(O)(c2ccc(F)cc2)CC1 (stereo not shown) [CBK283168],96.7%
17,CCN1CCCC1CN(Cc1ccncc1)Cc1ccoc1 (stereo not shown) [CBK283171],91%
18,Cc1[nH]c2ccc(F)cc2c1-c1cn2c3c(nnc2n1)CCCC3 [CBK283172],92.3%
19,Cc1ccc(CN(CCCN(C)C)Cc2cccc(O)c2)o1 [CBK283173],108%
20,Cc1ccc(CN(Cc2c[nH]cn2)C2CC(C)(C)NC(C)(C)C2)o1 [CBK283175],91%
21,Cn1ccnc1CN(Cc1ccccc1)C1CC(C)(C)NC(C)(C)C1 [CBK283177],93.2%
22,Cc1nc[nH]c1CN(Cc1ccccc1)C1CC(C)(C)NC(C)(C)C1 [CBK283178],92%

row,SMILES,"viability at 28.5 h, 10 µM"
1,CC1(C)CC(N(Cc2ccccc2)Cc2ncc[nH]2)CC(C)(C)N1 [CBK283179],95.2%
2,Cc1n[nH]c(C)c1CNC(=O)CCc1ccc(Cl)cc1 [CBK283185],95%
3,Cc1ccc(CN(CCCn2ccnc2)Cc2ccccc2O)o1 [CBK283189],99.8%
4,Cc1ccc(CN(Cc2nccn2C)C2CC(C)(C)NC(C)(C)C2)o1 [CBK283190],112%
5,Cc1ccc(CN(Cc2ncc[nH]2)C2CC(C)(C)NC(C)(C)C2)o1 [CBK283191],96%
6,CC1(C)CC(N(Cc2ccccc2)Cc2c[nH]cn2)CC(C)(C)N1 [CBK283196],103%
7,CN(C)CCCN(Cc1ccco1)Cc1c[nH]nc1-c1cccs1 [CBK283198],106%
8,Cc1nc2sccn2c1CN(CCCN(C)C)Cc1ccco1 [CBK283199],92.5%
9,OC1CCN(Cc2ccc(-c3ccc(F)cc3F)o2)CC1 [CBK283200],98.9%
10,CCn1cc(CN(CCCN(C)C)Cc2ccc(C)o2)c(C)n1 [CBK283201],95.5%
11,Cn1ccnc1CN1C[C@@H]2CCCN2C[C@@H]1Cc1ccccc1 [CBK283202],91.1%
12,CN(CCc1ccccc1)Cc1nc2ccccc2c(=O)[nH]1 [CBK283204],98.7%
13,O=c1[nH]c(CN2CCCCCCC2)nc2ccccc12 [CBK283205],117%
14,CC1CCc2n[nH]c(C(=O)N3CCC(O)C(C)C3)c2C1 (stereo not shown) [CBK283207],107%
15,O=C(NCCCc1ccccn1)c1cc2ccc(F)cc2[nH]1 [CBK283211],84.4%
16,CC1CCc2n[nH]c(C(=O)NCCCC3CCOC3)c2C1 (stereo not shown) [CBK283212],102%
17,O=C(NCCCC1CCOC1)c1cc2ccc(F)cc2[nH]1 (stereo not shown) [CBK283213],110%
18,CCOC(=O)C(C)NC(=O)c1cc2ccc(F)cc2[nH]1 (stereo not shown) [CBK283214],107%
19,C1=CCC(CN(CCCn2ccnc2)Cc2cccnc2)CC1 (stereo not shown) [CBK283216],88.6%
20,C=Cn1ncc(CN(CCCn2ccnc2)CC2CC=CCC2)c1C (stereo not shown) [CBK283219],96.8%
21,CC(C)C1c2cccn2CCN1C(=O)c1cc(-c2ccccn2)n[nH]1 (stereo not shown) [CBK283223],81.9%
22,CCC1c2ccc(C)n2CCN1C(=O)c1cc(-c2ccccn2)n[nH]1 (stereo not shown) [CBK283225],86.4%

row,SMILES,"viability at 28.5 h, 10 µM"
1,C[C@@H](Cn1c(C(F)(F)F)cc2cccnc21)NC(=O)C1CCC1 [CBK283230],109%
2,Cc1ccc(CN(CCCN2CCOCC2)Cc2ccoc2)o1 [CBK283234],81%
3,Cc1ccc(CN(CCN(C)C)Cc2c(C)nn(C(C)C)c2C)o1 [CBK283235],100%
4,CC(NC(=O)CSCc1ccco1)c1ccccc1 (stereo not shown) [CBK283237],100%
5,CC(Cc1cccs1)NC(=O)CSCc1ccco1 (stereo not shown) [CBK283238],84.8%
6,Cc1ccc2c(CC(=O)N(C)CCc3cn[nH]c3)coc2c1 [CBK283239],90.8%
7,Cc1ccc2c(CC(=O)NCCn3cncn3)coc2c1 [CBK283240],93.8%
8,COc1ccc(C2(CN3CCC(NC(C)=O)CC3)CCCC2)cc1 [CBK283241],85.4%
9,COc1cccc(C2(O)CCCC3CN(C(C)=O)CC32)c1 (stereo not shown) [CBK283242],80.8%
10,Cc1cc(C)n(C(C)CNC(=O)c2cc(C3CC3)on2)n1 (stereo not shown) [CBK283243],103%
11,CC(Cc1cccs1)NC(=O)c1cc(C2CC2)on1 (stereo not shown) [CBK283244],107%
12,C[S+]([O-])CCNC(=O)c1cnn(-c2ccc(F)cc2)c1 (stereo not shown) [CBK283245],89.1%
13,Cc1c(C(=O)NCCCCn2ccnc2)[nH]c2ccccc12 [CBK283246],94.3%
14,CCc1[nH]c2ccc(C(=O)NC3CCCOC3)cc2c1C (stereo not shown) [CBK283247],95.9%
15,Cc1ccc(CN(CCCn2ccnc2)Cc2ccsc2)o1 [CBK283253],96.4%
16,CCCN1CCC(CNC(=O)c2cc3c(OC)cccc3n2C)CC1 [CBK283255],90.1%
17,CCn1cc(CCC(=O)NC2CCCOC2)c2ccccc21 (stereo not shown) [CBK283256],88.7%
18,CCn1c(C)cc2cc(NC(=O)c3cnc(C)nc3C)ccc21 [CBK283260],104%
19,COc1ccccc1CC(C)NC(=O)c1ccc2nc(C)[nH]c2c1 (stereo not shown) [CBK283261],86.1%
